“Also recorded” adds a separate entry of the source. Like-named read-outs stand apart in the source and are kept apart here.
Legend:
[1] = Metabolism of α-MG in in vitro S9 fraction of small intestine; type: in vitro ADME, mice; conditions: 30 min incubation, NADPH and UDPGA
From the text: (§1) The procedures for using S9 fractions from various tissues were similar those already reported. Each liver, stomach, small intestine, large intestine, lung, heart, kidney, fat, mesentery, muscle, and brain was excised after cervical dislocation (n = 6). Each tissue sample was rinsed with cold 0.9% NaCl-injectable solution, blotted dry with tissue paper and weighed. Then each tissue was homogenized with a volume of 0.25 M sucrose at 4 times of each tissue. Metabolic activity was initiated by adding a 100 μL aliquot of the 9000 × g supernatant fraction (S9) of each tissue to a 135 μL of Tris-buffer (pH 7.4), 5 μL of 0.9% NaCl-injectable solution with 1 or 20 μg/mL α-MG as a final concentration, 5 μL (1 mM) of NADPH and 5 μL (3.3 mM) of UDPGA. A 250 μL aliquot of acetonitrile (containing 1 μg/mL of the IS) was added after a 30 min incubation in a thermomixer (37°C and 500 opm) to terminate the enzyme activity. The amount of remaining α-MG in the S9 fraction of each tissue was determined using the HPLC-MS/MS analytical method.

Caco2 cell line = test system: Caco2 cell line; parameters: method as in PMID 19415666; conditions: cited from earlier work
[2] = Stability of α-MG in various buffer solutions; type: physicochemical; conditions: pHs ranging from 2 to 13; unpublished data
[3] = Metabolism of α-MG in in vitro S9 fraction of liver; type: in vitro ADME, mice; conditions: 30 min incubation, NADPH and UDPGA
From the text: as §1

[4] = Tissue distribution of α-MG (tissue-to-plasma ratios) after intravenous and oral administration; type: in vivo, mice
Procedure: The surgical procedures and administration of α-MG were conducted according to a previously reported method, [12], [31]. At 30 and 180 min after intravenous and oral administration of α-MG at doses of 10 mg/kg, as much blood as possible was collected via the carotid artery and each mouse was then sacrificed by cervical dislocation. Each liver, spleen, stomach, small intestine, large intestine, mesentery, kidney, fat, muscle, heart, lung, and brain was excised, weighted and homogenized with a volume of distilled water at 4 times the each organ. After centrifugation for 10 min, the supernatant was collected and all samples stored at –80°C until required.

[5] = Pharmacokinetics of α-MG after oral administration to mice (automated microsampling); type: in vivo; conditions: for CL renal / Cmax / AUC / Tmax / half-life / Ae 0–24 h / GI 24 h: oral; for Tmax: median (ranges); for half-life: read-out: Terminal half-life
Procedure: The surgical procedures were conducted under intramuscular injection anesthesia with 125 mg (1.5 mL)/kg of tiletamine HCl and zolazepam HCl mixture. The carotid artery (for intravenous and oral studies) and the jugular vein (for intravenous study) were cannulated using CX-2052S and CX-2022S catheters (BASi, West Lafayette, IN), respectively. After the mice awoke from anesthesia, the administration of α-MG and blood sampling were performed, [12], [31].
α-MG (the same solution as used in the intravenous study) at doses of 10, 50 and 100 mg (10 mL)/kg was administered orally using a gastric gavage tube after overnight fasting with free access to water. A blood sample using the microsampling system was collected via the carotid artery at 0, 5, 15, 30, 60, 90, 120, 180, 240, 300 and 360 min after the oral administration of α-MG. Other procedures were similar to those in the intravenous study.
The analytical method for measuring α-MG was modified from a previous report. In sample preparation, 100 μL of acetonitrile containing 1 μg/mL IS was added to 50 μL of aliquot of the sample. After vortex-mixing and centrifugation (15000 × g for 10 min), 10 μL of the supernatant was directly injected into a reversed-phase C18 column (Cadenza CD-C18, 2 mm × 75 mm i.d., 3-μm particle size; Imtakt, USA) kept at 4°C until injection. The analytes were monitored using a API4000 triple quadrupole mass spectrometer (AB Sciex, Foster City, CA) equipped with a turbo ion-spray interface for electrospray ionization and operated in positive ion mode at 5500 V and 500°C at 50 L/min of nebulizing gas flow, 50 L/min of turbo ion-spray gas flow, 20 L/min of curtain gas flow, 5500 V of ring voltage and 5 Torr of collision gas (nitrogen) pressure.
Standard methods were used to calculate the following pharmacokinetic parameters using a non-compartmental analysis (WinNonlin 2.1; Pharmasight Corp., Mountain View, CA). The extent of absolute oral bioavailability (F) was calculated by dividing the AUCoral/AUCiv at the same dose. The peak plasma concentration (C max) and time to reach C max (T max) were read directly from the […] data.

P-glycoprotein = target: T1, P-glycoprotein (Homo sapiens, UniProt P08183); assay: P-glycoprotein substrate test in MDCK-mdr1 cell line; type: in vitro ADME; conditions: our unpublished data
T1 construct: expressed in transfected cells; host or cells: MDCK-mdr1 (canine kidney cells carrying an mdr1 transgene; transfection is inferred from the cell line name)

[6] = Mouse plasma protein binding using an equilibrium dialysis technique; type: in vitro ADME; conditions: pH 7.4, fresh mouse plasma
Procedure: A 250 μL of mouse plasma was dialyzed against 250 μL of isotonic Sørensen phosphate buffer with pH 7.4 containing 3% (w/v) dextran (‘the buffer’) in a dialysis cell using a Spectra/Por 4 membrane (molecular weight cutoff of 12000–14000; Spectrum Medical Industries). α-MG was spiked into the plasma compartment to produce an initial concentration of 1 or 20 μg/mL and all other procedures followed the reported method.

[7] = Metabolism of α-MG in in vitro S9 fractions of other tissues; type: in vitro ADME, mice; conditions: other tissues studied, spiked 1 and 20 μg/mL
From the text: as §1

T1 sequence (P08183 whole entry): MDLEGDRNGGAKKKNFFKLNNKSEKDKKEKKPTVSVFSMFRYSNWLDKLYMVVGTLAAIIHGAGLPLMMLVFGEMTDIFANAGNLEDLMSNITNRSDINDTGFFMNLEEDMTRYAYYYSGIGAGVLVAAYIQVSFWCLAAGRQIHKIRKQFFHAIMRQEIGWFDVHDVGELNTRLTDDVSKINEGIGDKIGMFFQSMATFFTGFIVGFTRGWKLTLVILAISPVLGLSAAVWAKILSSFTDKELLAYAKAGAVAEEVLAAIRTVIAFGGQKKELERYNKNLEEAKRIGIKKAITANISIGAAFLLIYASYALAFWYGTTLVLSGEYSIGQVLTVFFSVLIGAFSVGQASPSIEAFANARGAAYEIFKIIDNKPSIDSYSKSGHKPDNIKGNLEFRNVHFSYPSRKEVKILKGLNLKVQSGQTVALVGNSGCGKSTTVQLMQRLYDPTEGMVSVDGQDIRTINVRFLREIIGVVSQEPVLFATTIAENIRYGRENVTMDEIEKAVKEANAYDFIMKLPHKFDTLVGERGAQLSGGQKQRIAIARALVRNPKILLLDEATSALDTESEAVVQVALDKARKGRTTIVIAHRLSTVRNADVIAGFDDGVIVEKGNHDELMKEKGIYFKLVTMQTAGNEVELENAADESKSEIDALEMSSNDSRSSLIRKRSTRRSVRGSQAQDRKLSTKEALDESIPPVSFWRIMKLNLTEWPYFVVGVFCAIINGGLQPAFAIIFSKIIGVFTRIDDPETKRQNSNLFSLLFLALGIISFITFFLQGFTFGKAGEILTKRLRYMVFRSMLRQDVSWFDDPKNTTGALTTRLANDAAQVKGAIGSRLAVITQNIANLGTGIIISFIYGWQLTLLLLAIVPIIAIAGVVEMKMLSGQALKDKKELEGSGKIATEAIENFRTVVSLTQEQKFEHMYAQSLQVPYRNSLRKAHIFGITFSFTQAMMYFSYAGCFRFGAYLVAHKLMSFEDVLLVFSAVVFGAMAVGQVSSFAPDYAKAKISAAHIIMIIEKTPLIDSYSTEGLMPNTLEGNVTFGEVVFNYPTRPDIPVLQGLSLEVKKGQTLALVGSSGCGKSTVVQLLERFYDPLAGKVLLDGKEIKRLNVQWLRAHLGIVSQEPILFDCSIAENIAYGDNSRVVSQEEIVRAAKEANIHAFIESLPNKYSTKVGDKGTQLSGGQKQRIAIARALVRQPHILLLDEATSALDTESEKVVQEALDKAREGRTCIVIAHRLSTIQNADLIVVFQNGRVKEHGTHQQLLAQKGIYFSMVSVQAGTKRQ

SMILES: COc1c(O)cc2oc3cc(O)c(CC=C(C)C)c(O)c3c(=O)c2c1CC=C(C)C [α-MG, α-Mangostin]
- disappearance of spiked α-MG ([1]; small intestine S9, 1 μg/mL): 34.8%
- disappearance of spiked α-MG ([1]; small intestine S9, 20 μg/mL): 36.2%
- absorption in the Caco2 cell line (Caco2 cell line): low absorption
- stability in various buffer solutions [2]: stable
- disappearance of spiked α-MG ([3]; liver S9, 1 μg/mL): 57.3%
- disappearance of spiked α-MG ([3]; liver S9, 20 μg/mL): 51.4%
- tissue-to-plasma (T/P) ratio ([4]; intravenous 10 mg/kg, kidney, at 30 min): greater than unity
- tissue-to-plasma (T/P) ratio ([4]; intravenous 10 mg/kg, large intestine and fat, at 180 min): greater than unity
- tissue-to-plasma (T/P) ratio ([4]; intravenous 10 mg/kg, liver, small intestine and lung, at 30 and 180 min): greater than unity
- tissue-to-plasma (T/P) ratio ([4]; oral 10 mg/kg, all tissues studied except the brain, at 30 and 180 min, 10 mg/kg): greater than unity; also recorded: above unity
- first blood sampling time point at which detected in plasma ([5]; after oral administration): 5 min
- F unabs ('true' fraction of the oral dose unabsorbed) ([5]; calculated by reported equation assuming linear pharmacokinetics): 0.434
- bioavailability ([5]; mouse, plasma, oral 10 mg/kg, AUCoral/AUCiv at the same dose, read-out: F (absolute oral bioavailability)): 2.29%
- CL renal ([5]; mouse, plasma, 10 mg/kg): 0.535 ± 0.309 mL/min/kg
- Cmax ([5]; mouse, plasma, 10 mg/kg): 40.3 ± 30.7 ng/mL
- AUC ([5]; mouse, plasma, 10 mg/kg (n = 8)): 130 ng·h/mL
- Tmax ([5]; mouse, plasma, 10 mg/kg): 1 h
- half-life ([5]; mouse, plasma, 10 mg/kg): 2.95 ± 1.18 h
- CL renal ([5]; mouse, plasma, 50 mg/kg): 0.547 ± 0.309 mL/min/kg
- Cmax ([5]; mouse, plasma, 50 mg/kg): 242 ± 35 ng/mL
- AUC ([5]; mouse, plasma, 50 mg/kg (n = 7)): 622 ng·h/mL
- Tmax ([5]; mouse, plasma, 50 mg/kg): 0.5 h
- half-life ([5]; mouse, plasma, 50 mg/kg): 3.28 ± 1.35 h
- CL renal ([5]; mouse, plasma, 100 mg/kg): 0.418 ± 0.229 mL/min/kg
- Cmax ([5]; mouse, plasma, 100 mg/kg): 709 ± 397 ng/mL
- AUC ([5]; mouse, plasma, 100 mg/kg (n = 9)): 1390 ng·h/mL
- Tmax ([5]; mouse, plasma, 100 mg/kg): 1 h
- half-life ([5]; mouse, plasma, 100 mg/kg): 2.52 ± 0.822 h
- Ae 0–24 h ([5]; 10 mg/kg): 0.0255 ± 0.0107 % of dose
- GI 24 h ([5]; 10 mg/kg): 43.5 ± 10.6 % of dose
- Ae 0–24 h ([5]; 50 mg/kg): 0.0315 ± 0.0241 % of dose
- GI 24 h ([5]; 50 mg/kg): 40.2 ± 11.6 % of dose
- Ae 0–24 h ([5]; 100 mg/kg): 0.0270 ± 0.0113 % of dose
- GI 24 h ([5]; 100 mg/kg): 41.2 ± 4.51 % of dose
- substrate of P-glycoprotein (P-glycoprotein): substrate of P-glycoprotein
- fraction unbound at 1 μg/mL ([6]; 1 μg/mL): 0.082
- fraction unbound at 20 μg/mL ([6]; 20 μg/mL): 0.107
- metabolic activity in S9 fractions [7]: almost negligible metabolic activities

Source: article PMC4503439, “Dose-Independent ADME Properties and Tentative Identification of Metabolites of α-Mangostin from Garcinia mangostana in Mice by Automated Microsampling and UPLC-MS/MS Methods” (PLoS ONE, 2015)
